Measured values as given in patent US10787452B2 (Vertex Pharmaceuticals Incorporated, priority 2012, dated 2020).

Test system: HCT116 colorectal cancer cells
Test: Cisplatin sensitization assay (96 h cell viability MTS);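 note: compound concentration needed to lower the Cisplatin-alone IC50 by a set fold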
Type: cell-based
Conditions: 96 h MTS, compound plus Cisplatin
Summary of the method: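 Full-matrix combination: compound × cisplatin, 2-fold dilutions from 10 μM top final, co-added; 96 h, 37° C, 5% CO2; MTS read-out after 1 h.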

CN1CCN(C(=O)C2CCN(c3c(F)cncc3NC(=O)c3c(N)nn4cc(F)cnc34)CC2)CC1 [I-G-4, 2-amino-6-fluoro-N-(5-fluoro-4-(4-(4-methylpiperazine-1-carbonyl)piperidin-1-yl)pyridin-3-yl)pyrazolo[1,5-a]pyrimidine-3-carboxamide]
Cisplatin Sensitization Assay: +++ (Compounds with a Cisplatin sensitization value of <0.02 μM are marked with “+++.”)

Nc1nn2cc(Cl)cnc2c1C(=O)Nc1cnccc1N1CCC(N2CCn3ccnc3C2)CC1 [I-N-102, 2-amino-6-chloro-N-(4-(4-(5,6-dihydroimidazo[1,2-a]pyrazin-7(8H)-yl)piperidin-1-yl)pyridin-3-yl)pyrazolo[1,5-a]pyrimidine-3-carboxamide]
Cisplatin Sensitization Assay: ++ (Compounds with a Cisplatin sensitization value >0.02 μM but <0.2 μM are marked with “++.”)

CC(=O)N1CC2(CCN(c3ccncc3NC(=O)c3c(N)nn4cc(F)cnc34)CC2)C1 [I-N-251, N-(4-(2-acetyl-2,7-diazaspiro[3.5]nonan-7-yl)pyridin-3-yl)-2-amino-6-fluoropyrazolo[1,5-a]pyrimidine-3-carboxamide]
Cisplatin Sensitization Assay: +++ (Compounds with a Cisplatin sensitization value of <0.02 μM are marked with “+++.”)

CN1CCN(CC2CCN(c3c(F)cncc3NC(=O)c3c(N)nn4cc(F)cnc34)CC2)CC1 [I-N-150, 2-amino-6-fluoro-N-(5-fluoro-4-(4-((4-methylpiperazin-1-yl)methyl)piperidin-1-yl)pyridin-3-yl)pyrazolo[1,5-a]pyrimidine-3-carboxamide]
Cisplatin Sensitization Assay: +++ (Compounds with a Cisplatin sensitization value of <0.02 μM are marked with “+++.”)

Nc1nn2cc(F)cnc2c1C(=O)Nc1cnccc1N1CCN2C(=O)CCCC2C1 (centres unmarked) [I-N-244, 2-amino-6-fluoro-N-(4-(6-oxohexahydro-1H-pyrido[1,2-a]pyrazin-2(6H)-yl)pyridin-3-yl)pyrazolo[1,5-a]pyrimidine-3-carboxamide]
Cisplatin Sensitization Assay: +++ (Compounds with a Cisplatin sensitization value of <0.02 μM are marked with “+++.”)

Cc1nnc(C2CCN(c3ccncc3NC(=O)c3c(N)nn4cc(F)cnc34)CC2)o1 [I-N-265, 2-amino-6-fluoro-N-(4-(4-(5-methyl-1,3,4-oxadiazol-2-yl)piperidin-1-yl)pyridin-3-yl)pyrazolo[1,5-a]pyrimidine-3-carboxamide]
Cisplatin Sensitization Assay: ++ (Compounds with a Cisplatin sensitization value >0.02 μM but <0.2 μM are marked with “++.”)

CC(=O)N1CCC2(CCN(c3ccncc3NC(=O)c3c(N)nn4cc(F)cnc34)CC2)C1 [I-N-257, N-(4-(2-acetyl-2,8-diazaspiro[4.5]decan-8-yl)pyridin-3-yl)-2-amino-6-fluoropyrazolo[1,5-a]pyrimidine-3-carboxamide]
Cisplatin Sensitization Assay: +++ (Compounds with a Cisplatin sensitization value of <0.02 μM are marked with “+++.”)

N#CCc1cnc2c(C(=O)Nc3cnccc3OCC3CC3)c(N)nn2c1 [I-O-32, 2-amino-6-(cyanomethyl)-N-(4-(cyclopropylmethoxy)pyridin-3-yl)pyrazolo[1,5-a]pyrimidine-3-carboxamide]
Cisplatin Sensitization Assay: +++ (Compounds with a Cisplatin sensitization value of <0.02 μM are marked with “+++.”)

CCOC1CN(C(=O)C2CCN(c3ccncc3NC(=O)c3c(N)nn4cc(F)cnc34)CC2)C1 [I-G-91, 2-amino-N-(4-(4-(3-ethoxyazetidine-1-carbonyl)piperidin-1-yl)pyridin-3-yl)-6-fluoropyrazolo[1,5-a]pyrimidine-3-carboxamide]
Cisplatin Sensitization Assay: +++ (Compounds with a Cisplatin sensitization value of <0.02 μM are marked with “+++.”)

CN1CCN(c2ccncc2NC(=O)c2c(N)nn3cc(Cl)cnc23)CC1 [I-N-59, 2-amino-6-chloro-N-(4-(4-methylpiperazin-1-yl)pyridin-3-yl)pyrazolo[1,5-a]pyrimidine-3-carboxamide]
Cisplatin Sensitization Assay: ++ (Compounds with a Cisplatin sensitization value >0.02 μM but <0.2 μM are marked with “++.”)

N#CCc1cnc2c(C(=O)Nc3cnccc3OC3CCC3)c(N)nn2c1 [I-O-36, 2-amino-6-(cyanomethyl)-N-(4-cyclobutoxypyridin-3-yl)pyrazolo[1,5-a]pyrimidine-3-carboxamide]
Cisplatin Sensitization Assay: +++ (Compounds with a Cisplatin sensitization value of <0.02 μM are marked with “+++.”)

CCN1CCN(c2ccncc2NC(=O)c2c(N)nn3cc(F)cnc23)CC1 [I-N-17, 2-amino-N-(4-(4-ethylpiperazin-1-yl)pyridin-3-yl)-6-fluoropyrazolo[1,5-a]pyrimidine-3-carboxamide]
Cisplatin Sensitization Assay: +++ (Compounds with a Cisplatin sensitization value of <0.02 μM are marked with “+++.”)

Nc1nn2cc(F)cnc2c1C(=O)Nc1cnccc1N1CCC2(CCNC2)CC1 [I-N-255, N-(4-(2,8-diazaspiro[4.5]decan-8-yl)pyridin-3-yl)-2-amino-6-fluoropyrazolo[1,5-a]pyrimidine-3-carboxamide]
Cisplatin Sensitization Assay: ++ (Compounds with a Cisplatin sensitization value >0.02 μM but <0.2 μM are marked with “++.”)

Nc1nn2cc(F)cnc2c1C(=O)Nc1cnccc1OC1COC1 [I-O-92, 2-amino-6-fluoro-N-(4-(oxetan-3-yloxy)pyridin-3-yl)pyrazolo[1,5-a]pyrimidine-3-carboxamide]
Cisplatin Sensitization Assay: +++ (Compounds with a Cisplatin sensitization value of <0.02 μM are marked with “+++.”)

Nc1nn2cc(F)cnc2c1C(=O)Nc1cncc(F)c1N1CCN2CCOC[C@H]2C1 [I-N-135, (R)-2-amino-6-fluoro-N-(5-fluoro-4-(hexahydropyrazino[2,1-c][1,4]oxazin-8(1H)-yl)pyridin-3-yl)pyrazolo[1,5-a]pyrimidine-3-carboxamide]
Cisplatin Sensitization Assay: +++ (Compounds with a Cisplatin sensitization value of <0.02 μM are marked with “+++.”)

CN1CCN(c2ccncc2NC(=O)c2c(N)nn3cc(F)cnc23)CC1 [I-N-3, 2-amino-6-fluoro-N-(4-(4-methylpiperazin-1-yl)pyridin-3-yl)pyrazolo[1,5-a]pyrimidine-3-carboxamide]
Cisplatin Sensitization Assay: +++ (Compounds with a Cisplatin sensitization value of <0.02 μM are marked with “+++.”)

Nc1nn2cc(F)cnc2c1C(=O)Nc1cncc(F)c1N1CCC(C(=O)N2CCN3CCC2C3)CC1 (centres unmarked) [I-G-46, N-(4-(4-(1,4-diazabicyclo[3.2.1]octane-4-carbonyl)piperidin-1-yl)-5-fluoropyridin-3-yl)-2-amino-6-fluoropyrazolo[1,5-a]pyrimidine-3-carboxamide]
Cisplatin Sensitization Assay: +++ (Compounds with a Cisplatin sensitization value of <0.02 μM are marked with “+++.”)

Nc1nn2cc(F)cnc2c1C(=O)Nc1cncc(F)c1N1CCC(C(=O)N2CCN(C3COC3)CC2)CC1 [I-G-32, 2-amino-6-fluoro-N-[5-fluoro-4-[4-[4-(oxetan-3-yl)piperazine-1-carbonyl]-1-piperidyl]-3-pyridyl]pyrazolo[1,5-a]pyrimidine-3-carboxamide]
Cisplatin Sensitization Assay: +++ (Compounds with a Cisplatin sensitization value of <0.02 μM are marked with “+++.”)

Nc1nn2cc(Cl)cnc2c1C(=O)Nc1cnccc1O[C@H]1C[C@]2(CCN2)C1 [I-O-78, N-(4-((4s,6r)-1-azaspiro[3.3]heptan-6-yloxy)pyridin-3-yl)-2-amino-6-chloropyrazolo[1,5-a]pyrimidine-3-carboxamide]
Cisplatin Sensitization Assay: + (Compounds with a Cisplatin sensitization value >0.2 μM but <5 μM are marked with “+.”)

Nc1nn2cc(F)cnc2c1C(=O)Nc1cncc(F)c1N1CCN2C(=O)CC[C@@H]2C1 [I-N-186, (R)-2-amino-6-fluoro-N-(5-fluoro-4-(6-oxohexahydropyrrolo[1,2-a]pyrazin-2(1H)-yl)pyridin-3-yl)pyrazolo[1,5-a]pyrimidine-3-carboxamide]
Cisplatin Sensitization Assay: +++ (Compounds with a Cisplatin sensitization value of <0.02 μM are marked with “+++.”)

CN1CCN(C2CCN(c3ccncc3NC(=O)c3c(N)nn4cc(Cl)cnc34)CC2)CC1 [I-N-97, 2-amino-6-chloro-N-(4-(4-(4-methylpiperazin-1-yl)piperidin-1-yl)pyridin-3-yl)pyrazolo[1,5-a]pyrimidine-3-carboxamide]
Cisplatin Sensitization Assay: +++ (Compounds with a Cisplatin sensitization value of <0.02 μM are marked with “+++.”)

Nc1nn2cc(F)cnc2c1C(=O)Nc1cncc(F)c1N1CCN(C(=O)C2CCN(C3COC3)CC2)CC1 [I-N-211, 2-amino-6-fluoro-N-(5-fluoro-4-(4-(1-(oxetan-3-yl)piperidine-4-carbonyl)piperazin-1-yl)pyridin-3-yl)pyrazolo[1,5-a]pyrimidine-3-carboxamide]
Cisplatin Sensitization Assay: ++ (Compounds with a Cisplatin sensitization value >0.02 μM but <0.2 μM are marked with “++.”)

CC1(O)CCN(c2ccncc2NC(=O)c2c(N)nn3cc(Cl)cnc23)CC1 [I-N-66, 2-amino-6-chloro-N-(4-(4-hydroxy-4-methylpiperidin-1-yl)pyridin-3-yl)pyrazolo[1,5-a]pyrimidine-3-carboxamide]
Cisplatin Sensitization Assay: +++ (Compounds with a Cisplatin sensitization value of <0.02 μM are marked with “+++.”)

Nc1nn2cc(F)cnc2c1C(=O)Nc1cncc(F)c1N1CCN2C(=O)CC[C@@H]2C1 [I-N-182, (R)-2-amino-6-fluoro-N-(5-fluoro-4-(6-oxohexahydropyrrolo[1,2-a]pyrazin-2(1H)-yl)pyridin-3-yl)pyrazolo[1,5-a]pyrimidine-3-carboxamide]
Cisplatin Sensitization Assay: ++ (Compounds with a Cisplatin sensitization value >0.02 μM but <0.2 μM are marked with “++.”)

Nc1nn2cc(F)cnc2c1C(=O)Nc1cncc(F)c1N1CCC(C(=O)N2CCOCC2)CC1 [I-G-36, 2-amino-6-fluoro-N-(5-fluoro-4-(4-(morpholine-4-carbonyl)piperidin-1-yl)pyridin-3-yl)pyrazolo[1,5-a]pyrimidine-3-carboxamide]
Cisplatin Sensitization Assay: +++ (Compounds with a Cisplatin sensitization value of <0.02 μM are marked with “+++.”)

CN(C)CCOc1cc(Cl)ncc1NC(=O)c1c(N)nn2cc(Cl)cnc12 [I-O-68, 2-amino-6-chloro-N-(6-chloro-4-(2-(dimethylamino)ethoxy)pyridin-3-yl)pyrazolo[1,5-a]pyrimidine-3-carboxamide]
Cisplatin Sensitization Assay: ++ (Compounds with a Cisplatin sensitization value >0.02 μM but <0.2 μM are marked with “++.”)
